Data reported in patent publication US8575091B1, “Amylin analogues and pharmaceutical compositions thereof” (Novo Nordisk A/S, priority 2012, dated 2013).
Read-outs that look alike come from different tables or passages of the source. Numbered stars: 1 amine (or outer) side, 2 acyl side, 3 side chain; on linkers, the order of the positions; unused ones are H or OH. Bridge positions count the residues as written; N and C are the ends. Side chains are listed from the residue outwards. Peptide text beside a SMILES is read from it. * marks the point of attachment. C20 diacid = O=C(O)CCCCCCCCCCCCCCCCCCC(=O)*; γGlu = O=C(O)[C@H](CCC(=O)[*:2])N[*:1]; AEEA = NCCOCCOCC(=O)O

Key:
[1] = biological target: T1, human amylin receptor (Homo sapiens, UniProt O60896+P30988); assay: Assay (V) binding to the human amylin receptor (SPA, 125I-rat amylin); details: for Ratio hCT/hAmylin binding: human binding ratio, included for comparison; for IC50: read-out: hAmylin-R bind IC50
T1 construct: expressed in transfected cells
T1 sequence (P30988 25-474): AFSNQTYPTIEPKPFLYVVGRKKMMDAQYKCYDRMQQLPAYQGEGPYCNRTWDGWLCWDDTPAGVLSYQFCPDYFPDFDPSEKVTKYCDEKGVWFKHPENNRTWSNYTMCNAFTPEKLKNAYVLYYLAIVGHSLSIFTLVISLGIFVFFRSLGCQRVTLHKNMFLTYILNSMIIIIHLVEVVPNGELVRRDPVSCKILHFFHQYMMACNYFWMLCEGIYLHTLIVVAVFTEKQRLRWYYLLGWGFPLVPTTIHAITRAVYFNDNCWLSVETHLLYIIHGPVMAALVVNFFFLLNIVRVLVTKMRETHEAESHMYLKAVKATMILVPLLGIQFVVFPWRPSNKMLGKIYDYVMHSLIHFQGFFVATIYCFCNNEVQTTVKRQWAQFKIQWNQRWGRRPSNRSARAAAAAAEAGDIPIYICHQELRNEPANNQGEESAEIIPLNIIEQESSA
T1 sequence (O60896 24-148 partner): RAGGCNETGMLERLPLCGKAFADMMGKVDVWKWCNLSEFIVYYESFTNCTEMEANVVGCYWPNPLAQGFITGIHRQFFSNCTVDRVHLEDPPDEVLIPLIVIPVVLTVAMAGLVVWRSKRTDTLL
Summary of the method: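 SPA competition binding on membranes from Amylin 3(a)/CRE-luc cells, 35 ng/μL membranes with 0.05 mg/well beads. Buffer 50 mM Hepes pH 7.4, 1 mM CaCl2, 5 mM MgCl2, 0.1% OA, 0.02% Tween20. IC50 from one-site competition fit as affinity measure.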

[2] = biological target: T2, human amylin receptor (amylin 3(a) receptor: human calcitonin receptor + RAMP-3) (Homo sapiens, UniProt O60896+P30988); assay: Assay (II)a functional assay, human amylin receptor (CRE luciferase, BHK cells); assay type: cell-based
T2 construct: expressed in transfected cells
T2 sequence (P30988 25-474): T1 sequence (P30988 25-474)
T2 sequence (O60896 24-148 partner): T1 sequence (O60896 24-148 partner)
Description: Assay (II)—Functional Assays
Consequently, transcription is activated by promoters containing multiple copies of the cAMP response element (CRE).
The cell line was further transfected with RAMP-3, using standard methods.
After incubation overnight at 37° C. and 5% CO2, the growth medium was replaced by 50 μl/well assay medium (DMEM (without phenol red), Glutamax™, 10% FBS, and 10 mM Hepes, pH 7.4). Further, 50 μl/well of standard or sample in assay buffer were added. After 3 hours incubation at 37° C. and 5% CO2, the assay medium with standard or sample were removed and replaced by 100 μl/well PBS. Further, 100 μl/well LucLite™ was added. The plates were sealed and incubated at room temperature for 30 minutes. Finally, luminescence was measured on a TopCounter (Packard) in SPC (single photon counting) mode.

[3] = biological target: T3, rat amylin receptor (Rattus norvegicus, UniProt P32214+Q9JJ73); assay: Assay (VI) binding to the rat amylin receptor; details: rCTR bind IC50 divided by rAmylin-R bind IC50
T3 construct: expressed in transfected cells; host or cells: BHK tk'ts 13 (transient, FuGENE 6), membranes
T3 sequence (P32214 25-479 isoform P32214-2 limits assumed): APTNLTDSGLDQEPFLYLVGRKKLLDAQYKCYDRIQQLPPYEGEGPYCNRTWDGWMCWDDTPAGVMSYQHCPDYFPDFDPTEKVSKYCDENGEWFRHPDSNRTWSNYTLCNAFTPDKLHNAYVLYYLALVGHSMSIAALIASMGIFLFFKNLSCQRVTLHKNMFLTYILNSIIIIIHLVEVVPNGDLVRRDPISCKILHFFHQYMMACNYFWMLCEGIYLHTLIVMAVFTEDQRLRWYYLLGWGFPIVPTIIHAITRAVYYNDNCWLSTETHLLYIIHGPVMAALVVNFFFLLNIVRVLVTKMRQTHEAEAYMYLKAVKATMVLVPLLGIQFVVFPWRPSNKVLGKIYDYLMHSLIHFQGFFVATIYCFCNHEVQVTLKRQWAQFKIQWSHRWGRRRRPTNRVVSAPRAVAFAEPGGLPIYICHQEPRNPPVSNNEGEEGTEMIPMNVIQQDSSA
T3 sequence (Q9JJ73 23-147 partner): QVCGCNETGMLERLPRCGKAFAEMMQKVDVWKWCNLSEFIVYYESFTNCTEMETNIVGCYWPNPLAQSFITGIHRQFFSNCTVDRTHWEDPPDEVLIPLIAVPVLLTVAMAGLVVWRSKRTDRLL
Description: Assay (VI)—Determination of the Binding to the Rat Amylin Receptor
The assay was performed as described above (Assay (V)—Determination of binding to the human amylin receptor) with the exception that we used membranes prepared from BHK tk'ts 13 cells that were transiently transfected with the rat calcitonin receptor rat RAMP 3 at an equimolar ratio […]. The BHK tk'ts 13 cells were transiently transfected with rat calcitonin receptor using FuGENE® 6 (Roche), according to the manufacturer's recommendations. Cells were grown in DMEM with 10% FBS and 1% Pen/Strep. Approximately 48 hours after transfection, the cells were harvested and membranes were prepared.

[4] = biological target: T4, human calcitonin receptor (Homo sapiens, UniProt P30988); assay: Assay (II)a functional assay, human calcitonin receptor (CRE luciferase, BHK cells);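 note: luminescence from a CRE-driven luciferase reporter, read by single photon counting after cells were exposed to test samples for 3 h at 37 °C under 5% CO2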; assay type: cell-based; details: read-out: hCTR funct. EC50
T4 construct: expressed in transfected cells
T4 sequence (P30988 25-474): T1 sequence (P30988 25-474)

[5] = biological target: T4, human calcitonin receptor; assay: Assay (VII) binding to the human calcitonin receptor (SPA, 125I-Calcitonin); details: read-out: hCTR bind IC50;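 note: cell membranes coupled to SPA beads, competitive displacement read by scintillation counting, IC50 derived from a one-site competition fit as a measure of receptor affinity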
[6] = Table 6, human functional selectivity (hCTR EC50 / hAmylin-R EC50)
[7] = hCTR funct. EC50 divided by hAmylin-R funct. EC50

CC[C@H](C)[C@H](NC(=O)[C@@H]1CCCN1C(=O)CNC(=O)[C@H](Cc1ccccc1)NC(=O)[C@H](CC(N)=O)NC(=O)[C@@H]1CCCN1C(=O)[C@H](CO)NC(=O)[C@H](CO)NC(=O)[C@H](Cc1c[nH]cn1)NC(=O)[C@H](CCCNC(=N)N)NC(=O)[C@H](CC(C)C)NC(=O)[C@H](Cc1ccccc1)NC(=O)[C@H](CCC(=O)O)NC(=O)[C@H](C)NC(=O)[C@H](CC(C)C)NC(=O)[C@H](CCCNC(=N)N)NC(=O)[C@H](CCC(N)=O)NC(=O)[C@@H](NC(=O)[C@H](C)NC(=O)[C@@H]1CSSC[C@H](NC(=O)[C@H](CCCCN)NC(=O)CC[C@H](NC(=O)CCCCCCCCCCCCCCCCCCC(=O)O)C(=O)O)C(=O)N[C@@H](CC(N)=O)C(=O)N[C@@H]([C@@H](C)O)C(=O)N[C@@H](C)C(=O)N[C@@H]([C@@H](C)O)C(=O)N1)[C@@H](C)O)C(=O)N[C@@H](CC(C)C)C(=O)N1CCC[C@H]1C(=O)N1CCC[C@H]1C(=O)N[C@H](C(=O)N[C@@H](CC(N)=O)C(=O)N[C@H](C(=O)NCC(=O)N[C@@H](CO)C(=O)N[C@@H](CC(N)=O)C(=O)N[C@H](C(=O)N1CCC[C@H]1C(N)=O)[C@@H](C)O)C(C)C)[C@@H](C)O [Example 4] ({C20 diacid-γGlu}-KCNTATCATQRLAEFLRHSSPNFGPILPPTNVGSNTP-NH2; disulfide 2-7)
Ratio hCT/hAmylin binding [1]: 2.1
Ratio hCT/hAmylin funct. [2, 6]: 1.2
Ratio hCT/hAmylin funct. [2, 7]: 1.2
Ratio rCT/rAmylin binding [3]: 3.1

CC(C)C[C@H](NC(=O)[C@H](CCCNC(=N)N)NC(=O)[C@H](CCC(N)=O)NC(=O)[C@@H](NC(=O)[C@H](C)NC(=O)[C@@H]1CSSC[C@H](NC(=O)[C@H](CCCCN)NC(=O)CC[C@H](NC(=O)CCCCCCCCCCCCCCCCCCC(=O)O)C(=O)O)C(=O)N[C@@H](CC(N)=O)C(=O)N[C@@H]([C@@H](C)O)C(=O)N[C@@H](C)C(=O)N[C@@H]([C@@H](C)O)C(=O)N1)[C@@H](C)O)C(=O)N[C@@H](C)C(=O)N[C@@H](CCC(=O)O)C(=O)N[C@@H](Cc1ccccc1)C(=O)N[C@@H](CC(C)C)C(=O)N[C@@H](CCCNC(=N)N)C(=O)N[C@@H](Cc1c[nH]cn1)C(=O)N[C@@H](CO)C(=O)N[C@@H](CO)C(=O)N1CCC[C@H]1C(=O)N[C@@H](CC(N)=O)C(=O)N[C@@H](Cc1ccccc1)C(=O)NCC(=O)N[C@@H](C)C(=O)N1CCC[C@H]1C(=O)N[C@@H](CC(C)C)C(=O)N[C@@H](CO)C(=O)N[C@@H](CO)C(=O)N[C@H](C(=O)N[C@@H](CC(N)=O)C(=O)N[C@H](C(=O)NCC(=O)N[C@@H](CO)C(=O)N[C@@H](CC(N)=O)C(=O)N[C@H](C(=O)N1CCC[C@H]1C(N)=O)[C@@H](C)O)C(C)C)[C@@H](C)O [Example 5] ({C20 diacid-γGlu}-KCNTATCATQRLAEFLRHSSPNFGAPLSSTNVGSNTP-NH2; disulfide 2-7)
EC50 [4]: 160 pM
IC50 [5]: 537 pM
IC50 ([1]; binding to human amylin receptor): 374 pM
IC50 ([1]; human amylin receptor membranes, SPA): 374 pM
Ratio hCT/hAmylin binding [1]: 1.4
Ratio hCT/hAmylin funct. [2, 6]: 1.0
EC50 ([2]; functional assay, human amylin receptor, read-out: hAmylin-R funct. EC50): 162 pM
Ratio hCT/hAmylin funct. [2, 7]: 1.0
Ratio rCT/rAmylin binding [3]: 3.6

CC[C@H](C)[C@H](NC(=O)[C@H](C)NC(=O)CNC(=O)[C@H](Cc1ccccc1)NC(=O)[C@H](CC(N)=O)NC(=O)[C@@H]1CCCN1C(=O)[C@H](CO)NC(=O)[C@H](CO)NC(=O)[C@H](Cc1c[nH]cn1)NC(=O)[C@H](CCCNC(=N)N)NC(=O)[C@H](CC(C)C)NC(=O)[C@H](Cc1ccccc1)NC(=O)[C@H](CCC(=O)O)NC(=O)[C@H](C)NC(=O)[C@H](CC(C)C)NC(=O)[C@H](CCCNC(=N)N)NC(=O)[C@H](CCC(N)=O)NC(=O)[C@@H](NC(=O)[C@H](C)NC(=O)[C@@H]1CSSC[C@H](NC(=O)[C@H](CCCCN)NC(=O)COCCOCCNC(=O)COCCOCCNC(=O)CC[C@H](NC(=O)CCCCCCCCCCCCCCCCCCC(=O)O)C(=O)O)C(=O)N[C@@H](CC(N)=O)C(=O)N[C@@H]([C@@H](C)O)C(=O)N[C@@H](C)C(=O)N[C@@H]([C@@H](C)O)C(=O)N1)[C@@H](C)O)C(=O)N1CCC[C@H]1C(=O)N[C@@H](CO)C(=O)N[C@@H](CO)C(=O)N[C@H](C(=O)N[C@@H](CC(N)=O)C(=O)N[C@H](C(=O)NCC(=O)N[C@@H](CO)C(=O)N[C@@H](CC(N)=O)C(=O)N[C@H](C(=O)N1CCC[C@H]1C(N)=O)[C@@H](C)O)C(C)C)[C@@H](C)O [Example 20] ({C20 diacid-γGlu-AEEA-AEEA}-KCNTATCATQRLAEFLRHSSPNFGAIPSSTNVGSNTP-NH2; disulfide 2-7)
Ratio hCT/hAmylin binding [1]: 3.6
Ratio hCT/hAmylin funct. [2, 6]: 3.6
Ratio rCT/rAmylin binding [3]: 6.4

CC[C@H](C)[C@H](NC(=O)[C@H](C)NC(=O)CNC(=O)[C@H](Cc1ccccc1)NC(=O)[C@H](CC(N)=O)NC(=O)[C@@H]1CCCN1C(=O)[C@H](CO)NC(=O)[C@H](CO)NC(=O)[C@H](Cc1c[nH]cn1)NC(=O)[C@H](CCCNC(=N)N)NC(=O)[C@H](CC(C)C)NC(=O)[C@H](Cc1ccccc1)NC(=O)[C@H](Cc1c[nH]cn1)NC(=O)[C@H](C)NC(=O)[C@H](CC(C)C)NC(=O)[C@H](CCCNC(=N)N)NC(=O)[C@H](CCC(N)=O)NC(=O)[C@@H](NC(=O)[C@H](C)NC(=O)[C@@H]1CSSC[C@H](NC(=O)[C@@H](N)CCCCNC(=O)CC[C@H](NC(=O)CCCCCCCCCCCCCCCCCCC(=O)O)C(=O)O)C(=O)N[C@@H](CC(N)=O)C(=O)N[C@@H]([C@@H](C)O)C(=O)N[C@@H](C)C(=O)N[C@@H]([C@@H](C)O)C(=O)N1)[C@@H](C)O)C(=O)N1CCC[C@H]1C(=O)N[C@@H](CO)C(=O)N[C@@H](CO)C(=O)N[C@H](C(=O)N[C@@H](CC(N)=O)C(=O)N[C@H](C(=O)NCC(=O)N1CCC[C@H]1C(=O)N[C@@H](CC(N)=O)C(=O)N[C@H](C(=O)N1CCC[C@H]1C(N)=O)[C@@H](C)O)C(C)C)[C@@H](C)O [Example 115] (H-K([γGlu-C20 diacid])CNTATCATQRLAHFLRHSSPNFGAIPSSTNVGPNTP-NH2; disulfide 2-7 (inferred); N-terminus and C-terminus assumed)
Ratio hCT/hAmylin binding [1]: 1.2
Ratio hCT/hAmylin funct. [2, 6]: 0.8
Ratio rCT/rAmylin binding [3]: 3.0
